The source of these data is patent US10780092B2, “Fused pyrazine derivatives useful as soluble guanylate cyclase stimulators” (Merck Sharp & Dohme Corp., priority 2016, dated 2020).

The Ki is the dissociation constant of the complex between target and ligand, obtained from inhibition or displacement.

For one assay, the target named is sGC α1/β1 heterodimer (Homo sapiens (Human), UniProt Q02108+Q02153). The assay can be described thus: Cell-based sGC functional assay (CASA assay), cGMP by HTRF. The settings on record: CHO-K1/sGC cells; for Emax: CHO-K1, cGMP production as percentage of maximum of compound A (set to 100%), read-out: % Activation; for EC50: inflection point of cGMP production, 4P fit, read-out: IP. An excerpt:
Cell-Based sGC Functional Assay (Cyclic GMP Assay for sGC Activator: CASA Assay)
Soluble guanylate cyclase (sGC) is a heme-containing enzyme that converts GTP to secondary messenger cGMP. Increases in cGMP levels affect several physiological processes including vasorelaxation through multiple downstream pathways. […] Heme-dependent activators (HDAs) preferentially target sGC containing a ferrous heme group. To determine the effect of sGC activators on enzyme activity, the CASA assay was developed to monitor the generation of cGMP in a cell line that stably expresses the heterodimeric sGC protein.
A CHO-K1 cell line stably expressing the sGC α1/β1 heterodimer was generated using a standard transfection protocol. The cDNA's encoding human sGC α1 and β1 were cloned in pIRES hyg and pIRES neo respectively using standard molecular biology techniques. The plasmids pIRES hyg and pIRES neo plasmids were obtained from Clontech. CHO-K1 cells were transfected with plasmids pIREShyg-hsGCα1 and pIRESneo-hsGCβ1 simultaneously using FUGENE reagent. Clones that stably express both subunits were selected with hygromycin and neomycin for ˜2 weeks. The clone chosen for the assay was designated CHO-K1/sGC. CHO-K1/sGC cells were maintained in F-K12 medium containing 10% heat-inactivated Fetal Bovine Serum (FBS), 100 μg/mL penicillin/streptomycin, 0.5 mg/mL hygromycin and 0.25 mg/mL G418. The cells were then cryopreserved in liquid nitrogen. On the day of the assay, the cells were thawed and resuspended in EBSS Assay Buffer (Sigma, E3024) supplemented with 5 mM MgCl2, 10 mM HEPES (4-(2-hydroxyethyl)piperazine-1-ethanesulfonic acid) and 0.05% BSA (bovine serum albumin) and cell density was then adjusted to 2.25×10^5/mL with EAB. IBMX (3-isobutyl-1-methylxanthin, 0.5 mM) was added to inhibit degradation of cGMP. Compounds were diluted from DMSO stock solutions and added to the assay at a final DMSO concentration of 2.5%. Cells were pre-incubated in the presence and absence of 1 μM of Diethylenetriamine/nitric oxide adduct (DETA-NO; Sigma, 17018) for 30 min at 25° C. Compounds were subsequently added and incubated for 1 hr at 37° C. At the end of the incubation period, the reaction was terminated and the cells were lysed with the detection reagents from Cisbio Kits. The level of intracellular cGMP was determined using an HTRF-based assay kit (CisBio, 62GM2PEC), which detects the displacement of a fluorescence labeled cGMP from its specific antibody. The cGMP produced by test compounds was directly compared to the maximum cGMP production (this value was set to equal 100% activation) of the published sGC compound A (Example 1 in WO 2010/065275, published Jun. 10, 2010).
The test compounds' activities were then expressed as a percentage of compound A, the standard in every experiment. This percent activation was calculated either in the presence or absence of DETA-NO which was then plotted. Inflection points (IP) and maximum fold induction was derived using Abase analysis software for 4P fit.

Assay [1] concerns the target human recombinant sGC enzyme (Homo sapiens (Human), UniProt Q02108+Q02153). The assay can be described thus: SEC competition binding assay with [3H] Compound B radioligand. Conditions: displacement of 1.6 nM [3H] Compound B, 24 h at 37° C. How it is done: The binding potencies of sGC compounds to the human recombinant sGC enzyme were determined in a Size Exclusion Chromatography (SEC) competition binding assay using [^3H] Compound B as the radioligand. [^3H] Compound B was prepared using a standardardized tritium exchange procedure. The parent (non-labeled) molecule was first iodinated then a Pd-catalyzed iodine to tritium exchange provided the labeled compound.
Method: The binding buffer was composed of 50 mM triethanolamine pH 7.4, 3 mM MgCl2, 0.025% BSA, 2 mM dithiothreitol (DTT), 300 μM DETA/NO and 400 μM GTP. Assays were conducted in 96-well plates in a total volume of 200 μL. Recombinant human sGC protein (40 ng) was incubated with 1.6 nM [^3H] Compound B for 24 h at 37° C. in the presence and absence of various concentrations of sGC testing compounds delivered as DMSO solutions to give a total of 1% organic solvent content. Non-specific binding was defined by competition with 1 μM of Compound B. After the incubation period, the binding mixtures were loaded onto the gel-filtration plate (ThermoFischer Cat. No. 89808) pre-equilibrated with binding buffer and spun at 1000×g for 3 min at 4° C. on a Bench top centrifuge. The collected eluates in White Frame Clear Well Isoplates (Perkin Elmer Cat #6005040) received 100 μl of UltimaGold scintillation cocktail. The sealed plates were shaken vigorously and span, and counted after 6 hs with a Wallac Microbeta TriLux 1450 LSC & Luminescence Counter (Perkin Elmer). Data from competition experiments were analyzed to determine Ki values using one site—fit Ki equation.

As to `CC1(c2cc(O)c(C#N)c(Cl)c2)C(=O)Nc2nc(-c3cn4ccnc4c(Cc4cccc(F)c4)n3)nc(N)c21` (stereo not drawn) [Example 144-A, 4-(4-amino-2-{8-(3-fluorobenzyl)imidazo-[1,2-a]pyrazin-6-yl}-5-methyl-6-oxo-6,7-dihydro-5H-pyrrolo-[2,3-d]pyrimidin-5-yl)-2-chloro-6-hydroxy-benzonitrile], at sGC α1/β1 heterodimer, the Emax is 91% and the EC50 is 2680 nM. In assay [1], the Ki turned out to be 0.333 nM.

For `CC1(c2ccc(Cl)c(O)c2)C(=O)Nc2nc(-c3cn4ccnc4c(CCC4CCCCC4)n3)nc(N)c21` (stereo not drawn) [Example 63-A, 4-Amino-5-(4-chloro-3-hydroxyphenyl)-2-(8-(2-cyclohexylethyl)imidazo[1,2-a]pyrazin-6-yl)-5-methyl-5,7-dihydro-6H-pyrrolo[2,3-d]pyrimidin-6-one], on sGC α1/β1 heterodimer, the Emax was found to be 121% and the EC50 is 600 nM. Also, the Ki in assay [1] came out at 2.2 nM.

Consider `CC1(c2ccc(Cl)c(O)n2)C(=O)Nc2nc(-c3cn4ccnc4c(CC4CCCCC4)n3)nc(N)c21` (stereo not drawn) [Example 49-A, 4-Amino-5-(5-chloro-6-hydroxypyridin-2-yl)-2-(8-(cyclohexylmethyl)imidazo[1,2-a]pyrazin-6-yl)-5-methyl-5,7-dihydro-6H-pyrrolo[2,3-d]pyrimidin-6-one], for which, on sGC α1/β1 heterodimer, the Emax was found to be 111% and the EC50 worked out at 363 nM. Moreover, the Ki in assay [1] came out at 0.746 nM.

Take `CC1(c2cc(O)c(Cl)c(F)c2)C(=O)Nc2nc(-c3cn4ccnc4c(Cc4cc(F)ccc4F)n3)nc(N)c21` (stereo not drawn) [Example 6-B, 4-Amino-5-(4-chloro-3-fluoro-5-hydroxyphenyl)-2-{8-[(2,5-difluorophenyl)methyl]imidazo[1,2-a]pyrazin-6-yl}-5-methyl-5,7-dihydro-6H-pyrrolo[2,3-d]pyrimidin-6-one]: on sGC α1/β1 heterodimer, the Emax was 113% and the EC50 stood at 94 nM. Also, the Ki in assay [1] came out at 0.094 nM.

For the compound `Cc1cc(C2(C)C(=O)Nc3nc(-c4cn5ccnc5c(Cc5cccc(F)c5)n4)nc(N)c32)ccc1O` (stereo not drawn) [Example 45-A, 4-Amino-2-{8-[(3-fluorophenyl)methyl]imidazo[1,2-a]pyrazin-6-yl}-5-(4-hydroxy-3-methylphenyl)-5-methyl-5,7-dihydro-6H-pyrrolo[2,3-d]pyrimidin-6-one], on sGC α1/β1 heterodimer, the Emax was found to be 120% and the EC50 was 1570 nM. In addition, the Ki in assay [1] turned out to be 0.565 nM.

Regarding `CC1(c2cc(O)c(C#N)c(Cl)c2)C(=O)Nc2nc(-c3cn4ncnc4c(Cc4ccccc4F)n3)nc(N)c21` (stereo not drawn) [Example 149-A, 4-(4-amino-2-{8-(2-fluorobenzyl)-[1,2,4]-triazolo[1,5-a]pyrazin-6-yl}-5-methyl-6-oxo-6,7-dihydro-5H-pyrrolo-[2,3-d]pyrimidin-5-yl)-2-chloro-6-hydroxy-benzonitrile], on sGC α1/β1 heterodimer, the Emax was 54% and the EC50 stood at 583 nM. In addition, the Ki in assay [1] turned out to be 0.509 nM.

With `CCCCc1nc(-c2nc(N)c3c(n2)NC(=O)C3(C)c2ccc(C(F)(F)F)c(O)c2)cn2ncnc12` (stereo not drawn) [Example 61-B, 4-Amino-2-(8-butyl-[1,2,4]triazolo[1,5-a]pyrazin-6-yl)-5-(3-hydroxy-4-(trifluoromethyl)phenyl)-5-methyl-5,7-dihydro-6H-pyrrolo[2,3-d]pyrimidin-6-one], at sGC α1/β1 heterodimer, the Emax stood at 105% and the EC50 was 121 nM. For the same compound, in assay [1], the Ki turned out to be 2.08 nM.

On to `CC1(c2cc(O)c(Cl)cn2)C(=O)Nc2nc(-c3cn4ncnc4c(Cc4ccccc4F)n3)nc(N)c21` (stereo not drawn) [Example 148-B, 4-amino-5-(5-chloro-4-hydroxypyridin-2-yl)-2-{8-(2-fluorobenzyl)-[1,2,4]triazolo[1,5-a]-pyrazin-6-yl}-5-methyl-5,7-dihydro-6H-pyrrolo-[2,3-c]pyrimidin-6-one], for which, at sGC α1/β1 heterodimer, the Emax was determined as 105% and the EC50 was determined as 242 nM. Further, the Ki in assay [1] is 0.261 nM.

On to `CC1(c2ccc(O)c(F)c2)C(=O)Nc2nc(-c3cn4ccnc4c(Cc4ccccc4F)n3)nc(N)c21` (stereo not drawn) [Example 24-B, 4-Amino-5-(3-fluoro-4-hydroxyphenyl)-2-{8-[(2-fluorophenyl)methyl]imidazo[1,2-a]pyrazin-6-yl}-5-methyl-5,7-dihydro-6H-pyrrolo[2,3-d]pyrimidin-6-one], for which, at sGC α1/β1 heterodimer, the Emax amounted to 88% and the EC50 was 752 nM. The Ki in assay [1] came to 0.241 nM.

Consider `CC1(c2cccc(O)c2)C(=O)Nc2nc(-c3cn4ccnc4c(Cc4cccc(F)c4)n3)nc(N)c21` (stereo not drawn) [Example 121-B, 4-Amino-2-{8-[(3-fluorophenyl)methyl]imidazo[1,2-a]pyrazin-6-yl}-5-(3-hydroxyphenyl)-5-methyl-5,7-dihydro-6H-pyrrolo[2,3-d]pyrimidin-6-one], for which, on sGC α1/β1 heterodimer, the Emax was 120% and the EC50 worked out at 369 nM. Also, the inhibitory constant (Ki) in assay [1] is 0.382 nM.

On to `CC1(c2cc(O)c(Cl)cn2)C(=O)Nc2nc(-c3cn4ccnc4c(Cc4ccc(F)cc4)n3)nc(N)c21` (stereo not drawn) [Example 92-B, 4-Amino-5-(5-chloro-4-hydroxypyridin-2-yl)-2-{8-[(4-fluorophenyl)methyl]imidazo[1,2-a]pyrazin-6-yl}-5-methyl-5,7-dihydro-6H-pyrrolo[2,3-d]pyrimidin-6-one], for which, at sGC α1/β1 heterodimer, the Emax worked out at 104% and the EC50 was 2860 nM. The Ki in assay [1] was found to be 0.729 nM.

With `CC1(c2cccc(O)c2)C(=O)Nc2nc(-c3cn4ccnc4c(CCC(F)(F)C(F)(F)F)n3)nc(N)c21` (stereo not drawn) [Example 79-B, 4-Amino-5-(3-hydroxyphenyl)-5-methyl-2-(8-(3,3,4,4,4-pentafluorobutyl)imidazo[1,2-a]pyrazin-6-yl)-5,7-dihydro-6H-pyrrolo[2,3-d]pyrimidin-6-one], at sGC α1/β1 heterodimer, the Emax amounted to 108% and the EC50 is 96 nM. The Ki in assay [1] was found to be 9.41 nM.

On to `CC(C)CCc1nc(-c2nc(N)c3c(n2)NC(=O)C3(C)c2ccc(O)cc2)cn2ccnc12` (stereo not drawn) [Example 58-B, 4-Amino-5-(4-hydroxyphenyl)-2-(8-isopentylimidazo[1,2-a]pyrazin-6-yl)-5-methyl-5,7-dihydro-6H-pyrrolo[2,3-d]pyrimidin-6-one], for which, at sGC α1/β1 heterodimer, the Emax came to 121% and the EC50 worked out at 164 nM. Also, the Ki in assay [1] stood at 1.54 nM.

Consider `CC1(c2ccc(Cl)c(O)c2)C(=O)Nc2nc(-c3cn4ccnc4c(Cc4cc(F)cc(F)c4)n3)nc(N)c21` (stereo not drawn) [Example 36-A, 4-Amino-5-(4-chloro-3-hydroxyphenyl)-2-{8-[(3,5-difluorophenyl)methyl]imidazo[1,2-a]pyrazin-6-yl}-5-methyl-5,7-dihydro-6H-pyrrolo[2,3-d]pyrimidin-6-one], for which, on sGC α1/β1 heterodimer, the Emax came to 116% and the EC50 was 381 nM. In addition, the Ki in assay [1] amounted to 0.393 nM.
